# Laboratory results from PubChem BioAssay AID1996.
# Details: buffer; pH 7.4; 200.0 µM
row,Compound,solubility kinetic [µg/mL]
1,O=C(Cc1ccccc1)N1CCN(c2ccc([N+](=O)[O-])cc2)CC1,3.7
2,CC(=O)N1CCN(c2ccc(S(=O)(=O)N3CCOCC3)cc2[N+](=O)[O-])CC1,> 59.8
3,Cc1ccc(C(=O)NC(=S)N(C)C2CCCCC2)cc1,9.9
4,Cc1ccc(C)n1-c1ccc(C#N)cn1,26.6
5,CCOC(=O)c1ccc(NC(=O)c2cc(=O)[nH]c3ccccc23)cc1,< 0.4
6,CCc1cc(=O)[nH]c(SCc2cccc3ccccc23)n1,2.8
7,Nc1ncnc2c1nc(Br)n2[C@@H]1O[C@@H]2COP(=O)([O-])O[C@H]2[C@H]1O.[Na+],> 64.5
8,Cc1cnc(N2C(=O)c3ccc([N+](=O)[O-])cc3C2=O)s1,28
9,O=C(Nc1cccc(NC(=O)C2C3CC4OC(=O)C2C4C3)c1)c1ccccc1 (configuration not stated),46.7
10,CN(C)CC1CCCCC1=O.Cl (configuration not stated),> 28.8
11,CCOC(=O)CC(c1ccc([N+](=O)[O-])cc1)n1c(C)ccc1C (configuration not stated),32.9
12,O=C(Nc1ccccc1O)N1c2ccccc2Sc2ccccc21,< 0.4
13,Cc1ccccc1NC(=O)Cn1c(=O)sc2ccccc21,1.9
14,O=C(NCCCNC(=O)c1ccccn1)c1ccc(F)cc1,> 45.2
15,CC12CCC(C(=O)Nc3ccc(Br)cn3)(OC1=O)C2(C)C (configuration not stated),> 53
16,CC(C(=O)NCC1CCCCC1)N1CCc2ccccc2C1 (configuration not stated),41.9
17,O=[N+]([O-])c1ccc(N(CC2CO2)S(=O)(=O)c2ccccc2)cc1 (configuration not stated),41.9
18,O=C(NCCc1cccs1)c1cccs1,> 35.6
19,O=c1[nH]c(/C=C/c2ccccc2Cl)nc2ccccc12,< 0.3
20,CC(C)c1ccc(NC(=O)Nc2cnccn2)cc1,3.9
21,COc1ccccc1C(=O)NCCC(=O)Nc1ncccc1O,> 47.3
22,CC1(C(=O)NCc2ccc(F)cc2)Oc2ccccc2NC1=O (configuration not stated),> 47.1
23,CCCCn1c(N)c(N(CC)C(=O)c2ccco2)c(=O)[nH]c1=O,> 48.1
24,COc1ccc(NS(=O)(=O)c2ccc3c(c2)CCC(=O)N3)cc1O,> 52.3

row,Compound,solubility kinetic [µg/mL]
1,CN1C(=O)Cc2cc(S(=O)(=O)NCc3cccs3)ccc21,> 48.4
2,CC(OC(=O)c1ccc(Br)o1)C(=O)NCC1CCCCC1 (configuration not stated),10.7
3,O=C(NC12CC3CC(CC(C3)C1)C2)c1ccc([N+](=O)[O-])o1,34.9
4,O=C(COC(=O)/C=C/c1ccc(Cl)cc1Cl)NCc1ccco1,5.9
5,O=C(O)c1ccccc1OCc1nc2ccccc2s1,< 0.6
6,COC(=O)CC1=NN(c2nc3ccccc3s2)C(=O)/C1=C/N(C)C,> 51.7
7,Nc1ncnc2c1ncn2[C@@H]1O[C@H](CO)[C@@H](O)[C@@H]1O,> 40.1
8,COc1ccccc1NS(=O)(=O)c1cccc(NS(=O)(=O)c2ccc(Cl)c(C(=O)O)c2)c1,> 74.5
9,COc1ccccc1C(=O)NCCC(=O)NCc1ccncc1,> 47
10,Fc1ccc(OCc2nc(-c3cccs3)no2)cc1,0.8
11,CCOc1cccc(C(=O)NC(c2ccccc2)C(C)C)c1 (configuration not stated),5.1
12,NC(=O)[C@@H]1CCCN1Cc1nc(-c2ccccc2)no1,31.9
13,Cc1onc(-c2c(F)cccc2Cl)c1C(=O)Nc1cccc(S(=O)(=O)N2CCOCC2)c1,37.8
14,Cc1cccc(N2C(=O)c3ccc(Br)cc3C2=O)n1,> 47.6
15,COc1ccc(NC(=S)N2CCC(Cc3ccccc3)CC2)cc1,4.7
16,O=C(O)CC1(CC(=O)NCc2ccc(Cl)cc2)CCCCC1,> 48.6
17,Cc1ccc(NC(=O)c2cc3ccccc3oc2=N)cc1,< 0.3
18,COc1cccc(NC(=O)CCN2CCOCC2)c1.Cl,> 45.1
19,CCOC(=O)c1cccc(NC(=S)NCc2ccc(C)cc2)c1,0.4
20,Cc1ccc(-n2nc3c(c2NC(=O)C(C)(C)C)CS(=O)(=O)C3)cc1,> 52.1
21,COc1ccc(C(C)=O)cc1CN1CC=C(c2ccccc2)CC1,28.8
22,O=C(OCC(=O)N1CCCCCC1)c1ccc(Br)c(S(=O)(=O)N2CCOCC2)c1,> 73.4
23,Oc1ccccc1C=Nc1cccc2ccccc12,9.4
24,O=C(NNC(=O)c1ccccc1-n1cccc1)c1cncc(Br)c1,> 57.8

row,Compound,solubility kinetic [µg/mL]
1,O=C(COC(=O)/C=C/c1ccc(F)cc1)Nc1ccc(S(=O)(=O)N2CCOCC2)cc1,6.1
2,CC(=O)c1ccc(NC(=O)Nc2ccc3c(c2)nc(C)n3C)cc1,4.1
3,O=C(Nc1ccc(F)c(Cl)c1)C1CCCC1,13.5
4,O=C1CCC(C(=O)NCc2ccccc2)N1 (configuration not stated),30.8
5,Cc1cc(NC(=O)CSCC(=O)OCc2nnc(-c3ccc(F)cc3)o2)no1,> 61
6,COc1ccc(CCN(C)C(=O)c2ccc3c(=O)n4c(nc3c2)CCCCC4)cc1OC,> 65.3
7,CCC1Oc2ccc(C)cc2N(CC(=O)NCC2CCCO2)C1=O (configuration not stated),43.6
8,CC1(C2CC2)NC(=O)N(CC(=O)Nc2ccccc2C#N)C1=O (configuration not stated),> 46.8
9,CC1CCCC(NC(=O)CN2C(=O)COc3ccccc32)C1C (configuration not stated),6.4
10,CN(CC(=O)Nc1c(Cl)cccc1Cl)CC(=O)N(C)C1(C#N)CCCCC1,> 61.7
11,O=C1C2C3C=CC(C3)C2C(=O)N1c1ccc2ccccc2c1 (configuration not stated),12.3
12,Cc1nc(Cl)c2c(n1)NC(=O)CO2,> 29.9
13,O=C1/C(=C/c2ccco2)SC(=S)N1CC1CCCO1 (configuration not stated),6.6
14,COc1cc(/C=C2/SC(=O)NC2=O)ccc1OCc1ccccc1,< 0.7
15,O=C(NCC(=O)N1CCN(C/C=C/c2ccccc2)CC1)c1ccc(Br)cc1,15.4
16,O=C(O)CC(C(=O)Nc1ccc(F)cc1)C1CCCO1 (configuration not stated),> 42.2
17,c1ccc(CN2CCOCCOCCOCCOCC2)cc1,43.2
18,O=C(COC(=O)c1ccco1)NCc1ccc(Cl)cc1,16.4
19,Cn1ccnc1C(OC(=O)c1ccc(Cl)cc1)C(F)(F)F (configuration not stated),> 47.8
20,CCOc1ccc(-n2cc(-c3ccccc3)c3c(=S)nc[nH]c32)cc1,0.3
21,COc1ccc(S(=O)(=O)N2CCSCC2)cc1,> 41
22,Cn1cnnc1SCC(=O)NC1CCCC1,> 36
23,Cc1cc(C)cc(NS(=O)(=O)c2csc(C(N)=O)c2)c1,> 46.6
24,CC(C)CN1C(=O)N(c2ccc(Cl)cc2)C(C)(O)CC1(C)C (configuration not stated),4.1

row,Compound,solubility kinetic [µg/mL]
1,CCOc1ccccc1NC(=S)NC(=O)C1CCCCC1,0.6
2,N#Cc1ccc(COC(=O)c2ccccn2)cc1,30
3,COc1ccccc1C(=O)Nc1cccc2cccnc12,< 0.3
4,O=C(Cn1c(=O)oc2ccccc21)Nc1ccccc1Cl,6.8
5,CCCNS(=O)(=O)c1ccc(OCC(=O)NCC2CCCO2)cc1 (configuration not stated),51.2
6,CC1CC(NC2=NCCS2)CC(C)(C)C1 (configuration not stated),24.6
7,COC(=O)Cc1ccc(Oc2ncc(C(F)(F)F)cc2Cl)cc1,8.5
8,CCC(=O)NC(=S)Nc1cccc(Cl)c1N1CCCC1,0.3
9,Cc1ccc(Cn2c(=S)[nH]c3ccccc3c2=O)cc1,< 0.3
10,c1ccc(Sc2ccccn2)cc1,> 28.1
11,OCCCNC(=S)Nc1ccc2nccnc2c1,> 39.3
12,CSC1=C(C#N)C(c2sccc2C)CC(=O)N1 (configuration not stated),> 39.7
13,COC(=O)c1cn(Cc2ccc(C(F)(F)F)cc2)cc(F)c1=O,> 49.4
14,COc1ccc(C(=O)O)cc1S(=O)(=O)NCc1ccncc1,> 48.4
15,O=S(=O)(Nc1ccc2ccccc2n1)c1ccccc1Cl,3.3
16,COc1cc(C(=O)NCC(c2cccs2)N2CCOCC2)cc(Br)c1OCc1ccccc1 (configuration not stated),6.3
17,Cc1ccc(S(=O)(=O)N2CCOCC2)cc1NC(=O)CN1C(=O)NC2(CCCC2)C1=O,> 67.6
18,COc1ccc(N2CCOCC2)c(NC(=O)c2ccco2)c1,38.4
19,Cc1[nH]c2ccc(C(=O)N3CCN(Cc4ccccc4)CC3)cc2c1C,> 52.1
20,O=C(NCCc1c[nH]c2ccccc12)c1ccc2c(c1)OCO2,44.5
21,COc1cc(/C=C/C(=O)OCC(=O)NC(=O)C2COc3ccccc3O2)ccc1OC(F)F (configuration not stated),15.4
22,O=[N+]([O-])c1ccc(C(O)C(CO)NC(=S)Nc2ccccc2)cc1 (configuration not stated),> 52.1
23,COc1ccc(-c2cc(C(=O)OCC(=O)N3CCOCC3)c3ccccc3n2)cc1,26.3
24,COc1ccc(C(=O)C2CCCN(C(=O)C3=CCCC3)C2)c(C)c1 (configuration not stated),> 49.1

row,Compound,solubility kinetic [µg/mL]
1,S=C(NCCc1ccccc1)NCCc1cnc[nH]1,> 41.2
2,CCn1c(SCC(=O)NC2CC2)nnc1-c1csc(C)c1,> 48.4
3,Fc1ccc(-c2csc(NC(=S)Nc3ccccc3)n2)cc1,1.6
4,CN(C)CCCNC(=O)c1cc(C(=O)c2ccc(F)cc2)c[nH]1,> 47.6
5,Cc1cc([N+](=O)[O-])nn1CC(=O)N(C)C1CCCCC1,> 42
6,Cc1ccc(NC(=O)[C@@H]2CCCN2S(=O)(=O)c2ccc(Cl)cc2)cc1,14
7,Cc1cnc(C(=O)OCC(=O)c2c[nH]c3ccccc23)cn1,13.7
8,CSc1nc(-c2cccs2)c(C#N)c(=O)[nH]1,37.3
9,CCOP(=O)(OCC)C(Cc1ccccc1)NC(C)=O (configuration not stated),43.5
10,O=C(CN1C(=O)CCC1=O)Nc1cccc2c1C(=O)NC2=O,> 45.2
11,CCOC(=O)N1CCN(c2ccccc2OC)CC1,> 39.6
12,CCc1cccc2c(C(=O)C(NC(C)CC)c3ccccc3)c[nH]c12 (configuration not stated),42.8
13,Cc1ccc(N2C(=O)CCC(C(=O)O)C2c2cccs2)cc1 (configuration not stated),46.3
14,S=C1NCN(Cc2ccco2)CN1c1ccccc1,> 41
15,Clc1ccc(-c2ccnc(-n3cccc3)n2)s1,< 0.2
16,O=C(COC(=O)c1ccc2ncsc2c1)NCc1ccccc1Cl,10.4
17,COc1ccc(-c2csc(NC(=O)[C@H](C)N3C(=O)C4CC=CCC4C3=O)n2)cc1OC (some centres not stated),38.2
18,CC(=O)c1sc(NC(=O)COc2ccccc2)nc1C,5.7
19,CCC(=NCc1cc(OC)cc(OC)c1)c1c(O)[nH]c(=O)[nH]c1=O,12.5
20,Cc1cc(/C=C2\SC(=O)N(C)C2=O)c(C)n1-c1ccc(O)cc1,5.6
21,COC(=O)c1scc(S(C)(=O)=O)c1-n1cccc1,35.2
